# Measured values reported in patent US9290688B2, “Alkaline microbial enhanced oil recovery” (GEO FOSSIL FUELS, LLC, priority 2011, dated 2016).
# Numbered stars: 1 amine (or outer) side, 2 acyl side, 3 side chain; on linkers, the order of the positions; unused ones are H or OH. Bridge positions count the residues as written; N and C are the ends. Square brackets hold non-standard residues; d marks the D form. Peptide text beside a SMILES is read from it. X1 = CC(C)CCCCCCCCC[C@H](CC(=O)[*:1])O[*:2]
# Legend:
# [1] = biological target: T1, 3-ketothiolase I (Rattus norvegicus, UniProt P13437); conditions: cited from earlier work
# T1 sequence (P13437 1-397): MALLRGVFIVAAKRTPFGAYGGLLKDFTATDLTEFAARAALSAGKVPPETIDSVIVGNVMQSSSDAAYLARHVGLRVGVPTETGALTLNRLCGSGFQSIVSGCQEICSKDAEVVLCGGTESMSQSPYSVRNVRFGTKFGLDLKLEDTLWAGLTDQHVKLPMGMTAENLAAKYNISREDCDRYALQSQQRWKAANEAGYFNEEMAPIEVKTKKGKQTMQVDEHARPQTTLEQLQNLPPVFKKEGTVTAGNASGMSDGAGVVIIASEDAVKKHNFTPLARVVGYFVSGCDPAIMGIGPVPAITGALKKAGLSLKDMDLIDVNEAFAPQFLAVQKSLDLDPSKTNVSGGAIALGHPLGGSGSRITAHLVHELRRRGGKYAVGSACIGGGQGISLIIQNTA
# [2] = system: Rhodococcus rhodochrous ATCC #53968; assay: Digestion of Red River crude oil with and without beta-oxidation inhibitors; GC of methyl esters of extracted organic acids; assay type: cell-based; conditions: for Total GC (all peaks integrated by the GC integrator): 0.31 g oil sample; for conv. To umoles FA: approximately 1.0 micromoles per 100 area units; for Cal. AN (calculated acid number): estimated from GC areas
# Experimental: (§1) An oil degrading microorganism was used to evaluate the use of chemical inhibitors to slow the utilization of hydrocarbons in petroleum. In a non-limiting example, three different chemical compounds that have been reported to inhibit beta-oxidation were tested in oil and culture medium on a petroleum sample with a strain of Rhodococcus rhodochrous ATCC #53968 in m9 minimal medium. To test the ability of each chemical inhibitor to slow the consumption of fatty acids a culture of bacteria was grown on a crude oil sample for a period of three days with crude petroleum oil as the only carbon source. Four separate flasks were set up, each with an oil to aqueous media ratio of 1 to 5 (10 ml of crude oil to 50 ml of culture medium). Each of the three chemical inhibitors was added to a separate flask and a fourth flask was allowed to digest without the addition of a chemical inhibitor as a control. The flasks were shaken at a room temperature of about 25° C. under aerobic conditions. The progress of the microbial digestion was monitored by the optical density at 600 nm and by visual inspection of the brown oil color in the aqueous phase. Three days after the addition of inhibitors, or a total of six days of incubation with oil, a small sample of oil (0.31 g) was removed. A second sample of the same size was remover after another 6 days. The organic acids were extracted from each oil sample with 1% NaOH in 70% ethanol. The samples were shaken vigorously for one minute. The aqueous extract material was then extracted with hexane to remove any trace of oil. The samples of extracted organic acids were then dried under vacuum and converted to methyl esters with BF3 in methanol.
# The mixtures of methyl esters were analyzed by GC (gas chromatography) using a HP (Hewlett Packard) 5890 GC with an Agilent Technologies capillary column, HP-5 (crosslinked 5% PH) ME Siloxane 0.25 micrometer coating with a length of 30 meter and a column ID (internal diameter) of 0.32 mm. Helium was used as a carrier gas. Detection was by a FID detector and integration of peak areas was done with a HP 3396 integrator. The temperature program held an initial temperature of 40° C. for 1.0 minutes then increased at 15 degrees per minute to 280° C., and finally held at a temperature of 280° C. for 5 minutes. To quantify the amount of organic acids extracted by this procedure, a stock solution of 2-bromooctanoate and 2-bromohexadecanoate were added to a sample of undigested Red River crude petroleum oil and then extracted by the same procedure as the bio-digested oil samples. The average area for theses two organic acids was used to estimate the amount of organic acids in micromoles per area unit determined by the GC integrator. The number was calculated to be approximately 1.0 micromoles per 100 area units. The area units for each of the GC peaks are list in Table 2. This number was used to estimate the micromoles organic acids extracted from the oil. This estimate was used to calculate the number of mg of KOH that equaled the number of micromoles of organic acid estimated. This number is listed on the last row in Table 2 as the calculated AN (acid number) for each digestion experiment. These estimated numbers are only based on organic acids that are hydrophobic enough to stay in the oil phase and not move into the aqueous phase. Organic acids measured include the carboxylic acids made by the bacteria and that have been secreted out of the cell and have migrated back to the oil phase. They are also hydrocarbons that are small enough to be extracted into the ethanol aqueous extraction solvent. This number is likely to be less than the total acid number (TAN), a measure often used to evaluate crude petroleum for amenability to alkaline waterflooding.
# The earlier eluting peaks are believed to represent methyl ester of lighter hydrocarbon carboxylic acids and the later eluting peaks are believed to represent methyl ester of the heavier organic acids. […]
# [3] = system: Rhodococcus rhodochrous ATCC #53968; assay: Growth of bacteria on crude oil with inhibitors, optical density at 600 nm; assay type: cell-based
# Experimental: as §1
# Digestion with the bacteria increases the total amount of carboxylic acids in all the samples. The digestions with the chemical beta-oxidation inhibitors produce about the same or a little more total methyl ester peaks than the bacterial digestion without an inhibitor. […] The later eluting peaks increase at a faster rate with the inhibitors than without. For example, the 12 day sample with no inhibitor increase from 5.9 to 45.9 area units for peaks up to 13 minutes. The sample with the acrylic acid inhibitor has an increase of from 5.9 to 43.7 area units, which is less than without inhibitor. The later eluting peaks increase from 3.6 to 14.3 without the inhibitor, but with acrylic acid the later peak areas increase to 22.5 area units. […] After 6 days of digestion the optical density had reached 2.23 for the uninhibited digestion as compared to 0.49 for the acrylic acid inhibited sample and 1.84 for the 2-bromooctanoic acid and 2.4 for the 2-bromohexadeconoic acid. After 12 days of digestion the uninhibited sample had reached 4.0 and the acrylic acid had increased to 1.7 and 2.2 and 2.4 for the other two inhibitors. Therefore, by this experimental analysis one can determine which inhibitors increase the carboxylic acid content or the acid number of the oil fastest with the least amount of oil consumption. The oil consumption can be determined by quantitation of remaining oil or by growth of bacteria were oil is the only carbon source. It appears that all the inhibitors helped reduce the utilization of fatty acids and the consumption of oil while producing an increase in acid number.
# [4] = system: Rhodococcus rhodochrous ATCC #53968; assay: End of digestion: oil and aqueous volumes, acid number by alcoholic alkaline extraction and back titration; assay type: cell-based; conditions: one ml of oil, alcoholic alkaline extraction, back titration; acrylic acid value per gram of oil emulsion
# Experimental: as §1, with “The samples were shaken vigorously for one minute. The aqueous extract material was then extracted with hexane to remove any trace of oil. The samples of extracted organic acids were then dried under vacuum and converted to methyl esters with BF3 in methanol.” left out
# At the end of the experiment the oil and water were separated and the volume determined. […] This would have under reported the amount of methyl esters determined by GC analysis. The amount of aqueous phase was determined to be 22.5 ml for the acrylic acid sample and 46 ml, 48 ml and 47.5 ml for the others. […] The calculated acid number for the uninhibited digestion was 5 mg of KOH per gram. The other two inhibited digestions were analyzed to be 4.5 mg for the 2-bromooctanoic acid and 6.5 for the 2-bromohexadecanoic acid inhibited digestion. The undigested oil was determined to have an acid number of 6.5 mg of KOH by analysis of a one gram sample and a 10 gram sample. […]
# [5] = system: 3-ketoacyl-CoA thiolase; conditions: cited from earlier work
# [6] = 100, pH 10
# Experimental: Production of rhamnolipid biosurfactant was tested in engineered strains using the oil spreading assay (Fang et al DOE report 2007). Cells were grown three days at 30° C. in YCA-10 medium (per liter: 25 g NaCl, 5 g yeast extract, 5 g casamino Acids, 5 g Na2CO3, 1 g sodium glutamate, 1 g NH4Cl, 1 g KH2PO4, 1 g KCl, 200 mg MgSO4.7H2O, 36 mg FeCl2.4H2O, 0.36 mg MnCl.4H2O, adjusted to pH10.0 with KOH) containing 5 μg/ml chloramphenicol. For oil spreading assays, 50 mls of distilled water was dispensed into a 15 cm petri dish and 50 μl of petroleum oil was added to the surface of the water. A 10 μl drop of medium or culture suspension was added to the surface of the oil, and the diameter of the clear zone (if any) was measured after 2 minutes.
compound,measurement,setting,value
CCCCCCC(Br)C(=O)O (racemic) [DL-2-bromooctanoate],effect on 3-ketothiolase I,[1],complete and irreversible inactivation
"CCCCCCCCCCCCCCC(Br)C(=O)O (stereo not shown) [Br C16, 2-bromohexadecanoic acid]","GC peak area, retention time 4.5",[2]; 6 days,0.226 area units
same,"GC peak area, retention time 5.6",[2]; 6 days,1.099 area units
same,"GC peak area, retention time 6.6",[2]; 6 days,3.049 area units
same,"GC peak area, retention time 7.6",[2]; 6 days,2.553 area units
same,"GC peak area, retention time 8.2",[2]; 6 days,0.705 area units
same,"GC peak area, retention time 8.5",[2]; 6 days,1.395 area units
same,"GC peak area, retention time 9.4",[2]; 6 days,1.131 area units
same,"GC peak area, retention time 10.2",[2]; 6 days,1.11 area units
same,"GC peak area, retention time 11",[2]; 6 days,4.105 area units
same,"GC peak area, retention time 11.5",[2]; 6 days,2.76 area units
same,"GC peak area, retention time 12.5",[2]; 6 days,4.8 area units
same,"GC peak area, retention time 13.2",[2]; 6 days,1.26 area units
same,"GC peak area, retention time 13.6",[2]; 6 days,1.997 area units
same,"GC peak area, retention time 13.8",[2]; 6 days,3.211 area units
same,"SubTotal peak area, later peaks eluting after 13 minutes",[2]; 6 days,6.468 area units
same,"SubTotal peak area, peaks eluting before 13 minutes",[2]; 6 days,22.933 area units
same,Total GC area For 1 ml,[2]; 6 days,1385
same,Total of all selected peaks,[2]; 6 days,29.401 area units
same,Total GC (all peaks integrated by the GC integrator),[2]; 6 days,429.5 area units
same,conv. To umoles FA,[2]; 6 days,13.85 µmol
same,Cal. AN (calculated acid number),[2]; 6 days,0.78 mg of KOH
same,"GC peak area, retention time 4.2",[2]; 12 days,0.354 area units
same,"GC peak area, retention time 4.5",[2]; 12 days,0.237 area units
same,"GC peak area, retention time 5.6",[2]; 12 days,0.624 area units
same,"GC peak area, retention time 6.6",[2]; 12 days,1.498 area units
same,"GC peak area, retention time 7.6",[2]; 12 days,1.246 area units
same,"GC peak area, retention time 8.2",[2]; 12 days,0.602 area units
same,"GC peak area, retention time 8.5",[2]; 12 days,0.624 area units
same,"GC peak area, retention time 9.4",[2]; 12 days,0.476 area units
same,"GC peak area, retention time 10.2",[2]; 12 days,0.475 area units
same,"GC peak area, retention time 11",[2]; 12 days,1.663 area units
same,"GC peak area, retention time 11.5",[2]; 12 days,3.922 area units
same,"GC peak area, retention time 12.3",[2]; 12 days,3.095 area units
same,"GC peak area, retention time 13",[2]; 12 days,2.495 area units
same,"GC peak area, retention time 13.2",[2]; 12 days,3.584 area units
same,"GC peak area, retention time 13.4",[2]; 12 days,3.088 area units
same,"GC peak area, retention time 13.6",[2]; 12 days,2.779 area units
same,"GC peak area, retention time 13.8",[2]; 12 days,4.626 area units
same,"GC peak area, retention time 14.2",[2]; 12 days,0.762 area units
same,"SubTotal peak area, later peaks eluting after 13 minutes",[2]; 12 days,17.334 area units
same,"SubTotal peak area, peaks eluting before 13 minutes",[2]; 12 days,14.816 area units
same,Total GC area For 1 ml,[2]; 12 days,828
same,Total of all selected peaks,[2]; 12 days,32.15 area units
same,Total GC (all peaks integrated by the GC integrator),[2]; 12 days,256.8 area units
same,conv. To umoles FA,[2]; 12 days,8.28 µmol
same,Cal. AN (calculated acid number),[2]; 12 days,0.46 mg of KOH
same,optical density,"[3]; after 6 days of digestion, crude oil only carbon source",2.4
same,optical density,[3]; after 12 days of digestion,2.4
same,final analysis acid number,[4],6.5 mg KOH per gram
O=C(O)c1ccccc1O [Salicylic acid],effect on 3-ketoacyl-CoA thiolase in P. fluorescens,[5],inhibit
CC(C)CCCCCCCCC[C@@H]1CC(=O)N[C@@H](CCC(=O)O)C(=O)N[C@@H](CC(C)C)C(=O)N[C@H](CC(C)C)C(=O)N[C@@H](C(C)C)C(=O)N[C@@H](CC(=O)O)C(=O)N[C@H](CC(C)C)C(=O)N[C@@H](CC(C)C)C(=O)O1 [Surfactin (purified)] (EL[dL]VD[dL]L; linker N-C via X1),Clear zone diameter,[6],13 mm
